How the values were obtained:
[1] = (§1) Pharmacokinetics parameters for Cefotaxine evaluated after single IV or intramuscular (IM) administration of Cefotaxine to normal volunteers.; assay type: ADME, organism-based; set-up: dose 1 g, dose 500 mg, dose 2 g, route iv, route im; settings: human, in vivo, regimen Single dose
[2] = test system: Homo sapiens; assay: as §1; assay type: ADME, organism-based; set-up: dose 1 g, dose 500 mg, dose 2 g, route iv, route im; settings: in vivo, im, dose 500 mg, dosed compound id 59, dosed compound name CEFOTAXIME, regimen Single dose, tissue Serum
[3] = dose 1 g, dosed compound id 59, dosed compound name CEFOTAXIME, route im, tissue Serum

Molecule `CO/N=C(\C(=O)N[C@@H]1C(=O)N2C(C(=O)[O-])=C(COC(C)=O)CS[C@H]12)c1csc(N)n1.[Na+]` [CEFOTAXIME SODIUM] has a half-life ([1]; dose 50 mg/kg, dosed compound id 59, dosed compound name CEFOTAXIME, route iv, study dosing duration 10 to 15 minutes, tissue Urine) of 4.6 h, a Tmax [1, 3] of 0.5 h and a half-life [1, 3] of 1 h. It also gave a dose excreted ([1]; dosed compound id 590, dosed compound name 14C-CEFOTAXIME, route iv, tissue Urine, read-out: Excretion) of 20 to 36%, a Tmax [2] of 0.5 h and a t1/2 [2] of 1 h.

Source: ChEMBL document CHEMBL3832080, “DailyMed|setid=f3c5895f-f54b-43d4-9b38-7bfbdf8335b7 | CEFOTAXIME - cefotaxime injection, powder, for solution|WOCKHARDT USA LLC”
